Source: patent publication US20260028571A1, “BIOREACTORS FOR PERFUSING CELLS” (Ramot at Tel-Aviv University Ltd., priority 2023, published 2026)

Key:
[1] = test system: malignant mucosal melanoma; assay: Clinical treatment of the mucosal melanoma patient; type: in vivo, human
Description: (§1) Blood and tissue samples from a mucosal melanoma, a patient having the following characteristics: • person, malignant mucosal melanoma. • Tissue site: resected from the groin lymph node
This was followed by additional cycles of nivolumab post-surgery as adjuvant therapy resulting in further PD.
The perfusion system could have anticipated the unfavorable prognosis associated with Nivolumab (which was what was originally prescribed by the doctor) within 1-2 weeks, potentially sparing the patient six months of ineffective treatment, side effects, and the high costs as well as the time in which further mutations occurred.

[2] = test system: patient-derived mucosal melanoma cells; assay: Drug testing on patient-derived 3D tumor organoids in the perfusion system; type: cell-based, human; details: 96-well 3D tumor organoids with patient-derived PBMCs, FIG. 7
Description: as §1
96-well 3D tumor organoids were generated from the tumor sample (i.e. tumor cells and microenvironment cells, blood vessels and PBMCs were created from the samples. The tumor organoids were cultured in a plate similar to that shown in FIG. 1A. Each treatment was tested on multiple 3D organoids, each treatment corresponding to a single sequence of connected cell wells.
Multiple treatments and combinations were tested on the patient-derived mucosal melanoma cells and the patient-derived PBMCs, as summarized in FIG. 7.

Compound	reduction in tumor size ([1]; within a two-week timeframe)	efficacy [2]	response [2]	clinical outcome ([1]; additional cycles post-surgery as adjuvant therapy)	clinical outcome ([1]; neoadjuvant therapy, 4 cycles)
CNC(=O)c1cc(Oc2ccc(NC(=O)Nc3ccc(Cl)c(C(F)(F)F)c3)c(F)c2)ccn1 [Regorafenib]	50%	93%	–	–	–
Atezolizumab	–	–	0%	–	–
Nivolumab	–	–	0%	further PD	progressive disease (PD)
Pembrolizumab	–	–	0%	–	–
